In PMC4696824 (PLoS ONE, 2015):

T1: cathepsin B-like cysteine peptidase (DCcathB) (Diaphorina citri, UniProt A0A0U4DX43)
T1 construct: mature peptide residues 70 to 374
T1 sequence (A0A0U4DX43 70-374): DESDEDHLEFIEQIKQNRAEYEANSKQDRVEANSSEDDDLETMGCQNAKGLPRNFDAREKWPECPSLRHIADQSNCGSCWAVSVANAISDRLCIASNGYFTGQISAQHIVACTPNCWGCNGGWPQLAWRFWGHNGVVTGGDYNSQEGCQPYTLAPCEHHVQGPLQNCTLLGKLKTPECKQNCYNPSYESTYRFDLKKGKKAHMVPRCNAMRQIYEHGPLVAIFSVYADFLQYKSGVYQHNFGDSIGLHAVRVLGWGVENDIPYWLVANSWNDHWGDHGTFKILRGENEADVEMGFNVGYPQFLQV

B1: cathepsin B-like cysteine peptidase (DCcathB) (Diaphorina citri) (protein)
chain: T1 sequence (A0A0U4DX43 70-374)
notes: mature peptide residues 70 to 374

Legend:
[1] = molecular target: T1, cathepsin B-like cysteine peptidase (DCcathB); test: fluorogenic inhibition assay, Z-F-R-AMC substrate, purified recombinant enzyme; type: biochemical
[2] = substrate: Cc1cc(=O)oc2cc(NC(=O)[C@H](CCCNC(=N)N)NC(=O)[C@H](CCCNC(=N)N)NC(=O)OCc3ccccc3)ccc12; test: fluorogenic substrate hydrolysis, Km, purified recombinant enzyme; type: biochemical, Diaphorina citri
[3] = substrate: Cc1cc(=O)oc2cc(NC(=O)[C@H](CCCNC(=N)N)NC(=O)[C@H](Cc3ccccc3)NC(=O)OCc3ccccc3)ccc12; test: as above; type: biochemical, Diaphorina citri

Molecule	IC50 [1] [nM]	Km [2] [µM]	Km [3] [µM]
CCCNC(=O)[C@H]1O[C@@H]1C(=O)N[C@H](C(=O)N1CCC[C@H]1C(=O)O)[C@@H](C)CC [CA-074, N-(l-3-trans-propylcarbamoyloxirane-2-carbonyl)-L-isoleucyl-L-proline]	0.095		
CC(C)C[C@H](NC(=O)[C@H]1O[C@@H]1C(=O)O)C(=O)NCCCCN=C(N)N [E-64, L-trans-Epoxysuccinyl-leucylamido(4-guanidino)butane]	14		
B1		6.13	23.5
